How the values were obtained:
PC-3 cells [1] = assay: Intracellular ROS generation (H2DCFDA, flow cytometry); format: cell-based, human; settings: IC50,light 4 h, blue light 1 h
Description: The photocytotoxic effects of the complexes and metallopeptides were further elucidated by evaluating their ability to photogenerate ROS at the cellular level. PC-3 cells were treated with the compounds at the respective IC50,light and irradiated with blue light. Subsequently, ROS generation was measured using the 2′,7′-dichlorodihydrofluorescein diacetate (H2DCFDA) probe, which diffuses into cells and is oxidized by ROS to produce a green fluorescent signal. […] Nevertheless, to ascertain the potential contributions of other ROS to the photocytotoxic activity, the capacity of the compounds to undergo type I PDT processes, resulting in the production of superoxide anions (O2^•–), was examined using a specific fluorescent probe that emits an orange signal upon interaction with this radical. […]
Figure 9 Intracellular ROS generation. […] The elevation of general ROS (A) and superoxide anion (B) levels was determined with specific probes by flow cytometry. […]
PC-3 cells were seeded at a density of 100000 cells per well in 12-well plates and incubated overnight. […] Cells were subsequently harvested by trypsinization, and the median fluorescence emission of 10000 cells was measured using a Novocyte flow cytometer equipped with NovoExpress software. The fluorescence fold increase relative to untreated control cells was calculated. […]

PC-3 cells [2] = assay: Apoptosis assay, annexin V/propidium iodide; format: cell-based, human; settings: five times IC50,light, photoactivated, 24 h
Description: Mitochondria play an important role in the regulation of apoptosis. Alterations in the MMP can cause the release of apoptotic factors, such as cytochrome c, which activates the caspase cascade, leading to programmed cell death.[66],[67] In order to elucidate whether the toxic effect of the compounds at the mitochondrial level triggers cell death by apoptosis, a dual annexin V/propidium iodide labeling experiment was performed. The initial stages of apoptosis are characterized by alterations in the symmetry of phospholipids in the cytoplasmic membrane, which can be detected using annexin V (An). The late stages also include disruption of the cell membrane, permitting the penetration of propidium iodide (PrI), which emits red fluorescence when bound to DNA. […]
Figure 13 Cell death mechanism. […] After 24 h, the percentage of viable, necrotic, early apoptotic, and late apoptotic cells was analyzed by flow cytometry using propidium iodide and annexin V staining. […]
PC-3 cells were seeded into 12-well plates at a density of 100000 cells/well. […] The samples were immediately analyzed using a Novocyte flow cytometer. Annexin-FITC staining was detected at a wavelength of 520 nm, and propidium iodide was detected at 617 nm. The fluorescence emission of 10000 cells per sample was measured, and the percentages of live, early apoptotic, late apoptotic, and necrotic cell populations were determined.

## COC(=O)/C=C/c1ccc(-c2nccc3c4ccccc4n(C)c23)nc1.[Cl-].[Ir+3].[c-]1ccccc1-c1ccccn1.[c-]1ccccc1-c1ccccn1 [Ir-Me]
PC-3 cells [1]
  ROS levels, fold increase versus control cells: 4.5 fold
PC-3 cells [2]
  cells in early apoptosis: 11.9%
  cells in late apoptosis: 41.7%

From PMC11483813, “Bombesin-Targeted Delivery of β-Carboline-Based Ir(III) and Ru(II) Photosensitizers for a Selective Photodynamic Therapy of Prostate Cancer” (Inorganic Chemistry, 2024)
